Measured values as given in ChEMBL document CHEMBL4482315, “In vivo imaging of sulfotransferases” (2013).
Active and inactive are the calls of the source. The calls are words filed in the database; no cut-off is given here.

Tested on: Rattus norvegicus
Assay: In-vivo substrate activity at SULT1A in brain of Sprague-Dawley rat with renal hypertension a at 0.5 to 2 mCi dosed via bolus injection measured after 60 mins post dose by microPET imaging method
Type: functional, organism-based
Details: tested as the 18F-labelled form

## O=[N+]([O-])c1cc(O)ccc1F
  Activity: Active
